These results are taken from PubChem BioAssay (NCI).

What is called TGI is the concentration giving total growth inhibition. A higher TGI goes with less potent growth arrest.

Among the test systems are KM12 colon; OVCAR-5 ovarian; A549 NSCLC; MDA-N; HOP-92 NSCLC; T-47D breast; DU-145 prostate; UO-31 renal; ACHN renal; PC-3 prostate; RXF 393 renal; SN12C renal; HCT-116 colon; SR leukemia; HL-60(TB) leukemia.
Common to all, as to assay: DTP human tumour cell line panel, 48 h

Structures are written as SMILES.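 Step 1: Grow cells in 96-well plates. Step 2: Expose to compound for 48 hours at 5 concentrations. Step 3: Interpolate endpoints linearly; if unreached, use highest concentration. Definition used: TGI = concentration required for complete inhibition of growth.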 A value given as a limit tells only on which side of the number the result lay.

For the compound `CC1(C)C2CCC1(C)C(NC(=O)COCCOCC(N)=O)C2` (stereo not given), the TGI with KM12 colon, in the test with OVCAR-5 ovarian, with A549 NSCLC, in the test on MDA-N, in the test with HOP-92 NSCLC and in the test with T-47D breast was greater than 100 µM throughout. In addition, the TGI in the test on DU-145 prostate, in the test on UO-31 renal, in the test on ACHN renal, in the test on PC-3 prostate, in the test on RXF 393 renal and in the test on SN12C renal was greater than 100 µM each time. Further, the TGI in the test on HCT-116 colon is greater than 100 µM; in the test with SR leukemia, 85.1 µM; in the test on HL-60(TB) leukemia, greater than 100 µM.

Turning to `C=C(Cl)C(Cl)(CBr)CCCC(C)C` (stereo not given), the TGI in the test with KM12 colon is 24.2 µM; in the test on OVCAR-5 ovarian, 35.6 µM; in the test with A549 NSCLC it was 54.8 µM; with MDA-N it was 97.1 µM; with HOP-92 NSCLC, 31.7 µM; with T-47D breast it was greater than 41.4 µM. Further, the TGI with DU-145 prostate was 23.7 µM; in the test on UO-31 renal, 39.2 µM; in the test on ACHN renal, 26.2 µM; in the test with PC-3 prostate, 27.5 µM; in the test with RXF 393 renal it was 44.2 µM; in the test on SN12C renal, greater than 100 µM. Besides, the TGI in the test on HCT-116 colon is 24 µM; in the test on SR leukemia, greater than 100 µM; in the test with HL-60(TB) leukemia, greater than 55.1 µM.

With `CCSc1c2cc(OC)ccc2nc2ccc(OC)cc12`, the TGI was greater than 55.6 µM in the test with KM12 colon; 78.4 µM in the test with OVCAR-5 ovarian; greater than 100 µM in the test with A549 NSCLC; 21.7 µM in the test on MDA-N; greater than 100 µM with HOP-92 NSCLC; greater than 69.7 µM with T-47D breast. Moreover, the TGI with DU-145 prostate was greater than 72.5 µM; in the test on UO-31 renal, greater than 60.7 µM; with ACHN renal, greater than 87.4 µM; in the test with PC-3 prostate, greater than 56 µM; in the test on RXF 393 renal, 63 µM; in the test on SN12C renal, 50.9 µM. Besides, the TGI in the test with HCT-116 colon is greater than 47.8 µM; with SR leukemia it was greater than 23.5 µM; in the test with HL-60(TB) leukemia, greater than 100 µM.

On to `CC(C)(CO)CNc1nc(N)nc(Cl)c1C=O`, for which the TGI with KM12 colon was greater than 100 µM; in the test with OVCAR-5 ovarian, greater than 100 µM; with A549 NSCLC, greater than 100 µM; in the test with MDA-N it was 72.2 µM; in the test with HOP-92 NSCLC, 77.3 µM; in the test on T-47D breast, greater than 100 µM. Also, the TGI is greater than 100 µM with DU-145 prostate; greater than 100 µM in the test on UO-31 renal; greater than 100 µM in the test with ACHN renal; 41.3 µM in the test with PC-3 prostate; 44.9 µM in the test on RXF 393 renal; 55.3 µM with SN12C renal. Besides, the TGI was determined as 40.1 µM with HCT-116 colon, 66.6 µM with SR leukemia and 17.7 µM in the test with HL-60(TB) leukemia.

Turning to `CC(C)(C(=O)N(C(=O)N1CCN(c2ccccc2)CC1)S(=O)(=O)c1ccccc1)c1ccc(Cl)cc1`, the TGI in the test with KM12 colon was greater than 100 µM; with OVCAR-5 ovarian it was greater than 100 µM; in the test with A549 NSCLC, greater than 100 µM; in the test on MDA-N, greater than 100 µM; in the test with HOP-92 NSCLC, 53.6 µM; in the test on T-47D breast, greater than 100 µM. The TGI was greater than 100 µM in the test with DU-145 prostate; 34.3 µM with UO-31 renal; greater than 100 µM in the test on ACHN renal; 70.3 µM in the test with PC-3 prostate; greater than 100 µM with RXF 393 renal; greater than 100 µM in the test with SN12C renal. Besides, the TGI with HCT-116 colon, in the test on SR leukemia and in the test with HL-60(TB) leukemia was greater than 100 µM each time.

For `Cc1ccc2c(n1)C(=O)c1cc(C)c(C)cc1C2=O`, the TGI with KM12 colon, in the test with OVCAR-5 ovarian, in the test with A549 NSCLC, in the test with MDA-N, with HOP-92 NSCLC and with T-47D breast was greater than 100 µM throughout. Besides, the TGI in the test on DU-145 prostate, in the test with UO-31 renal, with ACHN renal, in the test on PC-3 prostate, in the test on RXF 393 renal and in the test on SN12C renal was greater than 100 µM in each case. Also, the figures for the TGI in the test with HCT-116 colon, with SR leukemia and with HL-60(TB) leukemia were greater than 100 µM, 85.1 µM and greater than 100 µM, respectively.

Regarding `c1ccc([P+](Cc2ccc(C[P+](c3ccccc3)(c3ccccc3)c3ccccc3)s2)(c2ccccc2)c2ccccc2)cc1`, the TGI with KM12 colon, in the test on OVCAR-5 ovarian, in the test on A549 NSCLC, with MDA-N, in the test on HOP-92 NSCLC and in the test with T-47D breast was greater than 100 µM each time. In addition, the TGI in the test with DU-145 prostate, in the test with UO-31 renal, in the test on ACHN renal, with PC-3 prostate, in the test with RXF 393 renal and in the test on SN12C renal was greater than 100 µM each time. Moreover, the TGI in the test with HCT-116 colon, in the test on SR leukemia and in the test with HL-60(TB) leukemia was greater than 100 µM each time.

Consider `CCCCCCCCCCCCCCCCNc1nc(=O)n(C2CC(O)C(COP(=O)(O)OC3CC(n4cc(F)c(=O)[nH]c4=O)OC3CO)O2)cc1F` (stereo not given), for which the TGI in the test with KM12 colon was greater than 81.4 µM; in the test on OVCAR-5 ovarian, greater than 100 µM; in the test on A549 NSCLC, 26.4 µM; in the test with MDA-N, greater than 100 µM; in the test with HOP-92 NSCLC, greater than 59.5 µM; with T-47D breast, greater than 100 µM. Further, the TGI in the test on DU-145 prostate is greater than 70.6 µM; in the test on UO-31 renal, greater than 46.8 µM; in the test with ACHN renal it was greater than 100 µM; in the test on PC-3 prostate, greater than 78.6 µM; in the test with RXF 393 renal it was 30.3 µM; in the test with SN12C renal it was greater than 100 µM. In addition, the TGI in the test on HCT-116 colon is greater than 100 µM; in the test on SR leukemia, 13.1 µM; in the test with HL-60(TB) leukemia, 19 µM.
